# Where two headings read alike, the source gives them in different places.
# What was measured:
# [1] = target: T1, BRAFV600E full-length (amino acids 2-766) (Homo sapiens, UniProt P15056, V600E); experiment: B-Raf Accelerated MEK ATPase assay (BRAMA); assay type: biochemical
# T1 construct: His6-tagged BRAFV600E full-length (amino acids 2-766); His6; made in house; host or cells: baculovirus expression system (insect cells)
# In short: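 Coupled-enzyme readout: ADP generated by MEK-mediated ATP hydrolysis, uncoupled from ERK phosphorylation, is linked to NADH oxidation through pyruvate kinase and lactate dehydrogenase.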
# [2] = system: Human colon tumor cells (Colo205); experiment: Cell growth inhibition assay (CellTiter-Glo), Colo205; assay type: cell-based
# Experimental: Human colon tumor cells (Colo205) were cultured in RPMI (Mediatech 50-020-PB) containing 10% FBS and 1% penicillin-streptomycin.
# The next day, compounds were diluted as follow: For 96-well assays, 13.5 μL of compound in DMSO were diluted using nine (9) serial 1:3 dilutions of 4.5 μL in 9 μL of DMSO. Medium (270 μL/well of RPMI with 10% FBS and 1% penicillin-streptomycin) was added to the plates. Aliquots (7 μL) were added to cells in the final assay giving a final DMSO concentration of 0.2%. For 384-well assays, 15 μL of compound in DMSO were diluted using nine (9) serial 1:3 dilutions of 5 μL in 10 μL of DMSO, followed by a further dilution of 5 μL of compound with 95 μL of medium, of which 2 μL were added to cells in the final assay giving a final DMSO concentration of 0.2%. Cells were incubated at 37° C., 5% CO2 for 3 days.
# Total ATP was measured (as a surrogate estimate of cell number) using CellTiter-Glo® reagent (Promega G7571). Briefly, plates were removed from the incubator and allowed to equilibrate to room temperature for 30 minutes. CellTiter-Glo® (25 μL or 55 μL for 384-well or 96-well assays, respectively) reagent was added to each well and plates were shaken on an orbital plate shaker for 2 minutes. Plates were incubated without shaking for a further 30 minutes and read on an LJL Analyst GT reader in luminometer mode with an integration time of 0.5 seconds per well. Percent inhibition of cell growth was calculated relative to DMSO vehicle-treated control wells.
# [3] = system: Human melanoma cancer cells (SK-MEL-28); experiment: Cell growth inhibition assay (CellTiter-Glo), SK-MEL-28; assay type: cell-based
# [4] = B-Raf Activity, Table 1a, highest pIC50 for the one or more runs, categorized
# [5] = B-Raf pIC50, Table 1b, later runs, average pIC50 for the one or more runs, categorized
# [6] = COLO 205, 72 h, Table 2a, 3 days incubation, read-out: Activity in Colo205 Tumor Cells
# [7] = COLO 205, Table 2b, later runs, average for the one or more runs, categorized, read-out: IC50 for Colo205
# [8] = SK-MEL-28, 72 h, Table 3a, 3 days incubation, read-out: Activity in SK-MEL-28 Tumor Cells
# [9] = SK-MEL-28, Table 3b, later runs, average for the one or more runs, categorized, read-out: IC50 for SK-MEL-28
# [10] = Table 1b, later runs, average pIC50 for the one or more runs, categorized, read-out: B-Raf pIC50 (converted)
# T1 sequence (P15056 2-766 V600E): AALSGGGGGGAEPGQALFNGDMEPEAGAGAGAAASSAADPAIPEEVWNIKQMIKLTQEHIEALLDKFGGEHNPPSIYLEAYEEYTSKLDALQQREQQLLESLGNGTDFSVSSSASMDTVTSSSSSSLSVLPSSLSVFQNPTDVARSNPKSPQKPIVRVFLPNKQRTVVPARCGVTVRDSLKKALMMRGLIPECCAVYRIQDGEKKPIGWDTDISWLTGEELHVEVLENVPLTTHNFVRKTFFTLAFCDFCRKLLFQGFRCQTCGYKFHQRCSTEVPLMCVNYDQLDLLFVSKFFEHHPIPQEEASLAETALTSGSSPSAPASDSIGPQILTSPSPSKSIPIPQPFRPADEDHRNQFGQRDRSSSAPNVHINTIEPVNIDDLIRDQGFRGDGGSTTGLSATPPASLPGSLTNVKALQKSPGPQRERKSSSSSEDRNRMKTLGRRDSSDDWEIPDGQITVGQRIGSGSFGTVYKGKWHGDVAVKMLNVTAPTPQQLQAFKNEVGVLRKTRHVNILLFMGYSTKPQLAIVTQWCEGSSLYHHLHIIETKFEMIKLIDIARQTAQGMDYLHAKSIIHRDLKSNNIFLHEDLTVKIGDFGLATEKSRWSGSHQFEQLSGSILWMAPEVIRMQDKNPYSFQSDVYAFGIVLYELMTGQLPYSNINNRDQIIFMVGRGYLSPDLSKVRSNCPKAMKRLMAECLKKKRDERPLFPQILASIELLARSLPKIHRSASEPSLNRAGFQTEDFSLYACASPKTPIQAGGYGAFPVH
SMILES,"IC50 [1, 4] [nM]","IC50 [1, 5] [nM]","IC50 [2, 6] [nM]","IC50 [2, 7] [nM]","IC50 [3, 8] [nM]","IC50 [3, 9] [nM]","IC50 [1, 10] [nM]",IC50 [1] [nM]
CC(C)c1nc(-c2cccc(NS(=O)(=O)c3cc(F)ccc3F)c2F)c(-c2ccnc(NCCNC(=O)CO)n2)s1 [Example 192],< 100,≤ 3.16,100 to 1000,100 to 1000,100 to 1000,< 100,,
"CC(C)CNc1nccc(-c2sc(C(C)(C)C)nc2-c2cccc(NS(=O)(=O)c3cc(F)ccc3F)c2)n1 [Example 3, N-[3-(2-(1,1-Dimethylethyl)-5-{2-[(2-methylpropyl)amino]-4-pyrimidinyl}-1,3-thiazol-4-yl)phenyl]-2,5-difluorobenzenesulfonamide]",< 100,,< 100,< 100,< 100,< 100,3.16 to 31.6,
"COc1ccc(F)cc1S(=O)(=O)Nc1cccc(-c2nc(C(C)C)sc2-c2ccnc(NCC(C)C)n2)c1 [Example 38, 5-Fluoro-N-[3-(2-(1-methylethyl)-5-{2-[(2-methylpropyl)amino]-4-pyrimidinyl}-1,3-thiazol-4-yl)phenyl]-2-(methyloxy)benzenesulfonamide]",100 to 1000,31.6 to 1000,> 1000,1000 to 10000,> 1000,1000 to 10000,,
"CC(C)c1nc(-c2ccc(F)c(NS(=O)(=O)c3cc(F)ccc3F)c2)c(-c2ccnc(NC3CCOCC3)n2)s1 [Example 76, 2,5-Difluoro-N-(2-fluoro-5-{2-(1-methylethyl)-5-[2-(tetrahydro-2H-pyran-4-ylamino)-4-pyrimidinyl]-1,3-thiazol-4-yl}phenyl)benzenesulfonamide]",< 100,,100 to 1000,100 to 1000,100 to 1000,100 to 1000,3.16 to 31.6,
CC(=O)NCCCNc1nccc(-c2sc(C(C)C)nc2-c2cccc(NS(=O)(=O)c3cc(F)ccc3F)c2F)n1 [Example 194],< 100,≤ 3.16,< 100,,< 100,< 100,,
"CC(=O)N1CCC(Nc2nccc(-c3sc(C(C)C)nc3-c3ccc(F)c(NS(=O)(=O)c4cc(F)ccc4F)c3)n2)CC1 [Example 77, N-{5-[5-{2-[(1-Acetyl-4-piperidinyl)amino]-4-pyrimidinyl}-2-(1-methylethyl)-1,3-thiazol-4-yl]-2-fluorophenyl}-2,5-difluorobenzenesulfonamide]",< 100,,< 100,< 100,< 100,< 100,3.16 to 31.6,
"Nc1nccc(-c2sc(N3CCOCC3)nc2-c2cccc(NS(=O)(=O)N3CCOCC3)c2F)n1 [Example 50, N-{3-[5-(2-Amino-4-pyrimidinyl)-2-(4-morpholinyl)-1,3-thiazol-4-yl]-2-fluorophenyl}-4-morpholinesulfonamide]",100 to 1000,31.6 to 1000,> 1000,1000 to 10000,> 1000,1000 to 10000,,
COCCCNc1nccc(-c2sc(C(C)(C)C)nc2-c2cccc(NS(=O)(=O)c3cc(F)ccc3F)c2F)n1 [Example 211],< 100,≤ 3.16,< 100,< 100,< 100,< 100,,
CC(C)CNc1nccc(-c2sc(N3CCOCC3)nc2-c2ccc(F)c(NS(=O)(=O)c3cc(F)ccc3F)c2)n1 [Example 139],< 100,,< 100,100 to 1000,< 100,100 to 1000,3.16 to 31.6,
"CS(=O)(=O)CCNc1nccc(-c2sc(N3CCCC3)nc2-c2cccc(NS(=O)(=O)c3c(F)cccc3F)c2)n1 [Example 32, 2,6-Difluoro-N-{3-[5-(2-{[2-(methylsulfonyl)ethyl]amino}-4-pyrimidinyl)-2-(1-pyrrolidinyl)-1,3-thiazol-4-yl]phenyl}benzenesulfonamide]",< 100,≤ 3.16,< 100,< 100,< 100,< 100,,
Nc1nccc(-c2sc(C3CCC3)nc2-c2cccc(NS(=O)(=O)c3c(F)cccc3F)c2F)n1 [Example 118],< 100,≤ 3.16,100 to 1000,100 to 1000,100 to 1000,100 to 1000,,
"CC(C)c1nc(-c2ccc(F)c(NS(=O)(=O)c3c(F)cccc3F)c2)c(-c2ccnc(NCCCN3CCOCC3)n2)s1 [Example 7, 2,6-Difluoro-N-{2-fluoro-5-[2-(1-methylethyl)-5-(2-{[3-(4-morpholinyl)propyl]amino}-4-pyrimidinyl)-1,3-thiazol-4-yl]phenyl}benzenesulfonamide]",100 to 1000,31.6 to 1000,> 1000,1000 to 10000,> 1000,1000 to 10000,,
"CC(C)(C)c1nc(-c2cccc(NS(=O)(=O)c3ccccc3F)c2F)c(-c2ccncn2)s1 [Example 224, N-{3-[2-(1,1-dimethylethyl)-5-(4-pyrimidinyl)-1,3-thiazol-4-yl]-2-fluorophenyl}-2-fluorobenzenesulfonamide]",,≤ 3.16,,< 100,,< 100,,
"CC(C)c1nc(-c2cccc(NS(=O)(=O)c3cccs3)c2)c(-c2ccnc(NCCS(C)(=O)=O)n2)s1 [Example 31, N-{3-[2-(1-Methylethyl)-5-(2-{[2-(methylsulfonyl)ethyl]amino}-4-pyrimidinyl)-1,3-thiazol-4-yl]phenyl}-2-thiophenesulfonamide]",< 100,≤ 3.16,< 100,< 100,< 100,< 100,,
"CC(C)(C)c1nc(-c2cccc(NS(=O)(=O)c3c(F)cccc3F)c2)c(-c2ccnc(NCCS(C)(=O)=O)n2)s1 [Example 2, N-{3-[2-(1,1-Dimethylethyl)-5-(2-{[2-(methylsulfonyl)ethyl]amino}-4-pyrimidinyl)-1,3-thiazol-4-yl]phenyl}-2,6-difluorobenzenesulfonamide]",< 100,≤ 3.16,< 100,< 100,< 100,< 100,,
"CC(C)(C)c1nc(-c2cccc(NS(=O)(=O)c3cc(F)ccc3F)c2Cl)c(-c2ccnc(CCS(C)(=O)=O)n2)s1 [Example 252, N-[2-chloro-3-(2-(1,1-dimethylethyl)-5-{2-[2-(methylsulfonyl)ethyl]-4-pyrimidinyl}-1,3-thiazol-4-yl)phenyl]-2,5-difluorobenzenesulfonamide]",,≤ 3.16,,< 100,,< 100,,
"CC(C)(C)c1nc(-c2c(F)ccc(NS(=O)(=O)c3cc(F)ccc3F)c2F)c(-c2ccnc(N)n2)s1 [Example 258, N-{3-[5-(2-amino-4-pyrimidinyl)-2-(1,1-dimethylethyl)-1,3-thiazol-4-yl]-2,4-difluorophenyl}-2,5-difluorobenzenesulfonamide]",,≤ 3.16,,< 100,,< 100,,
"Nc1nccc(-c2sc(N3CCOCC3)nc2-c2cccc(NS(=O)(=O)C3CC3)c2F)n1 [Example 51, N-{3-[5-(2-Amino-4-pyrimidinyl)-2-(4-morpholinyl)-1,3-thiazol-4-yl]-2-fluorophenyl}cyclopropanesulfonamide]",,,> 1000,1000 to 10000,> 1000,1000 to 10000,,> 1000
CC(C)(C)c1nc(-c2cccc(NS(=O)(=O)c3cc(F)ccc3F)c2F)c(-c2ccnc(NCCF)n2)s1 [Example 179],< 100,≤ 3.16,< 100,< 100,< 100,< 100,,
"Cc1nccc(-c2sc(C(C)(C)C)nc2-c2cccc(NS(=O)(=O)c3cccc(F)c3)c2F)n1 [Example 222, N-{3-[2-(1,1-dimethylethyl)-5-(2-methyl-4-pyrimidinyl)-1,3-thiazol-4-yl]-2-fluorophenyl}-3-fluorobenzenesulfonamide]",,,,< 100,,< 100,3.16 to 31.6,
"CC(C)c1nc(-c2ccc(F)c(NS(=O)(=O)c3cc(F)ccc3F)c2)c(-c2ccnc(NC3CC(C)(C)NC(C)(C)C3)n2)s1 [Example 74, 2,5-Difluoro-N-[2-fluoro-5-(2-(1-methylethyl)-5-{2-[(2,2,6,6-tetramethyl-4-piperidinyl)amino]-4-pyrimidinyl}-1,3-thiazol-4-yl)phenyl]benzenesulfonamide]",< 100,≤ 3.16,< 100,< 100,100 to 1000,100 to 1000,,
